# Reference: patent US20240190855A1 (Relay Therapeutics, Inc., priority 2021, published 2024)
# Molecular target: T1, CDK2/Cyclin E complex (Homo sapiens, UniProt P24941)
# T1 construct: purchased Eurofins 14-475
# Assay: CDK2/Cyclin E fluorescence-based microfluidic mobility shift assay (CDK2 Biochemical Caliper Assay)
# Conditions: read-out: Biochemical CDK2/CyclinE Caliper IC50
# Protocol: Compounds of the present disclosure were tested in a CDK2/Cyclin E fluorescence-based microfluidic mobility shift assay (PerkinElmer).
# The active wild type CDK2/Cyclin E complex was purchased from Eurofins (14-475). Compound stocks were prepared in DMSO and were serially diluted into 11 concentrations by 3-fold dilution. […] Compounds were incubated in the presence of CDK2/Cyclin E complex and ATP for 30 minutes at room temperature. Catalytic reaction was initiated with the addition of 5 uL of a 4× peptide solution containing 6 uM fluorescently label substrate peptide, FL Peptide 18 (aa sequence 5-FAM-QSPKKG, PerkinElmer, 760362) in 1× reaction buffer.
# The final reaction components were 0.1 nM CDK2/Cyclin E, 2000 uM ATP and 1.5 uM FL Peptide 18 and 1% DMSO. Reactions were incubated RT for 20 hr and terminated with 75 uL of a stopping solution containing 0.5 M EDTA. Samples were analyzed using a LabChip EZ reader (PerkinElmer).
row,SMILES,IC50 [µM]
1,"Cc1cc(CC(=O)Nc2cc([C@@H]3C[C@H](OC(=O)NC(C)C)CO3)[nH]n2)on1 (single isomer, unassigned) [Example 345]",0.1 to 0.25
2,"Cc1cc(CC(=O)Nc2cc([C@H]3C[C@@H](OC(=O)NC(C)C)CO3)[nH]n2)on1 (single isomer, unassigned) [Example 346]",0.1 to 0.25
3,"Cc1cc(CC(=O)Nc2cc([C@@H]3CC[C@H](n4cc(C)[nH]c4=O)C3)[nH]n2)on1 (single isomer, unassigned) [Example 349]",0.25 to 1
4,"Cc1cc(CC(=O)Nc2cc([C@@H]3CC[C@H](Oc4ccccc4)C3)[nH]n2)on1 (single isomer, unassigned) [Example 350]",1 to 100
5,"Cc1cc(CC(=O)Nc2cc([C@H]3CC[C@@H](Oc4ccccc4)C3)[nH]n2)on1 (single isomer, unassigned) [Example 351]",0.1 to 0.25
6,"Cc1cc(CC(=O)Nc2cc([C@H]3CC[C@@H](OC(=O)CC(C)C)C3)[nH]n2)on1 (single isomer, unassigned) [Example 352]",≤ 0.1
7,"Cc1cc(CC(=O)Nc2cc([C@@H]3CC[C@H](OC(=O)CC(C)C)C3)[nH]n2)on1 (single isomer, unassigned) [Example 353]",≤ 0.1
8,"Cc1cncc(O[C@H]2CC[C@@H](c3cc(NC(=O)Cc4cc(C)no4)n[nH]3)C2)c1 (single isomer, unassigned) [Example 354]",1 to 100
9,"Cc1cncc(O[C@@H]2CC[C@H](c3cc(NC(=O)Cc4cc(C)no4)n[nH]3)C2)c1 (single isomer, unassigned) [Example 355]",0.25 to 1
10,"Cc1ccc(O[C@H]2CC[C@@H](c3cc(NC(=O)Cc4cc(C)no4)n[nH]3)C2)cn1 (single isomer, unassigned) [Example 356]",0.25 to 1
11,"Cc1ccc(O[C@@H]2CC[C@H](c3cc(NC(=O)Cc4cc(C)no4)n[nH]3)C2)cn1 (single isomer, unassigned) [Example 357]",1 to 100
12,"Cc1cc(CC(=O)Nc2cc([C@@H]3CC[C@H](Oc4cccnc4C)C3)[nH]n2)on1 (single isomer, unassigned) [Example 358]",0.25 to 1
13,"Cc1cc(CC(=O)Nc2cc([C@H]3CC[C@@H](Oc4cccnc4C)C3)[nH]n2)on1 (single isomer, unassigned) [Example 359]",0.1 to 0.25
14,"Cc1cc(CC(=O)Nc2cc([C@H]3CC[C@@H](Oc4cncnc4)C3)[nH]n2)on1 (single isomer, unassigned) [Example 362]",1 to 100
15,"Cc1cc(CC(=O)Nc2cc([C@@H]3CC[C@H](Oc4cncnc4)C3)[nH]n2)on1 (single isomer, unassigned) [Example 363]",0.25 to 1
16,"COCc1cc(C(=O)Nc2cc([C@H]3CC[C@@H](Oc4ccccc4)C3)[nH]n2)n(C)n1 (single isomer, unassigned) [Example 364]",1 to 100
17,"COCc1cc(C(=O)Nc2cc([C@@H]3CC[C@H](Oc4ccccc4)C3)[nH]n2)n(C)n1 (single isomer, unassigned) [Example 365]",0.25 to 1
18,"COCc1cc(C(=O)Nc2cc([C@H]3CC[C@@H](Oc4cnccc4C)C3)[nH]n2)n(C)n1 (single isomer, unassigned) [Example 366]",1 to 100
19,"COCc1cc(C(=O)Nc2cc([C@@H]3CC[C@H](Oc4cnccc4C)C3)[nH]n2)n(C)n1 (single isomer, unassigned) [Example 367]",0.1 to 0.25
20,"Cc1cc(CC(=O)Nc2cc([C@H]3CC[C@@H](Cc4nncn4C(C)C)C3)[nH]n2)on1 (single isomer, unassigned) [Example 370]",1 to 100
21,"Cc1cc(CC(=O)Nc2cc([C@@H]3CC[C@H](Cc4nncn4C(C)C)C3)[nH]n2)on1 (single isomer, unassigned) [Example 371]",1 to 100

row,SMILES,IC50 [µM]
1,"Cc1cc(CC(=O)Nc2cc([C@@H]3CC[C@@H](Cc4nncn4C(C)C)C3)[nH]n2)on1 (single isomer, unassigned) [Example 372]",1 to 100
2,"Cc1cc(CC(=O)Nc2cc([C@H]3CC[C@H](Cc4nncn4C(C)C)C3)[nH]n2)on1 (single isomer, unassigned) [Example 373]",0.1 to 0.25
3,"CC(C)NC(=O)O[C@@H]1CC[C@H](c2cc(NC(=O)CN(C)c3ncnc4nc[nH]c34)n[nH]2)C1 (single isomer, unassigned) [Example 374]",0.1 to 0.25
4,"CC(C)NC(=O)O[C@H]1CC[C@@H](c2cc(NC(=O)CN(C)c3ncnc4nc[nH]c34)[nH]n2)C1 (single isomer, unassigned) [Example 375]",≤ 0.1
5,"Cc1cc(CC(=O)Nc2cc([C@@H]3CC[C@@H](O)C3)[nH]n2)on1 (single isomer, unassigned) [Example 376]",1 to 100
6,"Cc1cc(CC(=O)Nc2cc([C@H]3CC[C@H](O)C3)[nH]n2)on1 (single isomer, unassigned) [Example 377]",1 to 100
7,"Cc1cc(CC(=O)Nc2cc([C@@H]3CC[C@H](n4cc(C(C)C)[nH]c4=O)C3)[nH]n2)on1 (single isomer, unassigned) [Example 378]",1 to 100
8,"Cc1cc(CC(=O)Nc2cc([C@@H]3CC[C@H](Oc4cnccc4C)C3)[nH]n2)on1 (single isomer, unassigned) [Example 379]",0.25 to 1
9,"Cc1cc(CC(=O)Nc2cc([C@H]3CC[C@@H](Oc4cnccc4C)C3)[nH]n2)on1 (single isomer, unassigned) [Example 380]",0.1 to 0.25
10,"Cc1cc(CC(=O)Nc2cc([C@H]3CC[C@@H](Oc4cnccc4C4CC4)C3)[nH]n2)on1 (single isomer, unassigned) [Example 381]",≤ 0.1
11,"Cc1cc(CC(=O)Nc2cc([C@@H]3CC[C@H](Oc4cnccc4C4CC4)C3)[nH]n2)on1 (single isomer, unassigned) [Example 382]",0.25 to 1
12,"COCc1cc(C(=O)Nc2cc([C@H]3CC[C@@H](Oc4cncc(C)c4)C3)[nH]n2)n(C)n1 (single isomer, unassigned) [Example 383]",1 to 100
13,"COCc1cc(C(=O)Nc2cc([C@@H]3CC[C@H](Oc4cncc(C)c4)C3)[nH]n2)n(C)n1 (single isomer, unassigned) [Example 384]",1 to 100
14,"COCc1cc(C(=O)Nc2cc([C@H]3CC[C@@H](Oc4cccnc4C)C3)[nH]n2)n(C)n1 (single isomer, unassigned) [Example 385]",1 to 100
15,"COCc1cc(C(=O)Nc2cc([C@@H]3CC[C@H](Oc4cccnc4C)C3)[nH]n2)n(C)n1 (single isomer, unassigned) [Example 386]",0.25 to 1
16,"COCc1cc(C(=O)Nc2cc([C@H]3CC[C@@H](Oc4cncnc4)C3)[nH]n2)n(C)n1 (single isomer, unassigned) [Example 387]",1 to 100
17,"COCc1cc(C(=O)Nc2cc([C@@H]3CC[C@H](Oc4cncnc4)C3)[nH]n2)n(C)n1 (single isomer, unassigned) [Example 388]",1 to 100
18,"Cc1cc(CC(=O)Nc2cc([C@H]3CC[C@@H](Oc4ccccc4C(C)C)C3)[nH]n2)on1 (single isomer, unassigned) [Example 389]",0.25 to 1
19,"Cc1cc(CC(=O)Nc2cc([C@@H]3CC[C@H](Oc4ccccc4C(C)C)C3)[nH]n2)on1 (single isomer, unassigned) [Example 390]",0.1 to 0.25
20,"COCc1cc(C(=O)Nc2cc([C@H]3CC[C@@H](Oc4cnccc4C4CC4)C3)[nH]n2)n(C)n1 (single isomer, unassigned) [Example 393]",≤ 0.1
